From ChEMBL document CHEMBL4390649, “Fine-tuning the neuroprotective and blood-brain barrier permeability profile of multi-target agents designed to prevent progressive mitochondrial dysfunction” (Eur J Med Chem, 2019)
Active and inactive are the calls of the source. The rule behind the calls is not given here.

Test system: SH-SY5Y
Experiment: Neuroprotective activity against TBHP-induced oxidative damage in human SH-SY5Y cells assessed as increase in cell viability at 10 uM pretreated for 24 hrs followed by TBHP stimulation measured after 4 hrs by MTT assay relative to control
Assay type: functional, cell-based
Conditions: not given

Row | SMILES | Activity
1 | O=C(NCCCCCC[P+](c1ccccc1)(c1ccccc1)c1ccccc1)c1ccc(O)c(O)c1 | inactive
2 | CS(=O)(=O)[O-].O=C(/C=C/c1cc(O)c(O)c(O)c1)NCCCCCCCCCC[P+](c1ccccc1)(c1ccccc1)c1ccccc1 | inactive

Test system: not listed separately
Experiment: Cytotoxicity against human SH-SY5Y cells assessed as cell metabolic activity at 50 uM incubated for 24 hrs by MTT assay relative to control
Assay type: ADME, cell-based
Conditions: read-out: Activity

Row | SMILES | viability at 24 h, 50 µM
3 | O=C(NCCCCCC[P+](c1ccccc1)(c1ccccc1)c1ccccc1)c1ccc(O)c(O)c1 | 96.9%
4 | CS(=O)(=O)[O-].O=C(/C=C/c1cc(O)c(O)c(O)c1)NCCCCCCCCCC[P+](c1ccccc1)(c1ccccc1)c1ccccc1 | 101%

Test system: not listed separately
Experiment: Cytotoxicity against human HepG2 cells assessed as cell metabolic activity at 10 uM incubated for 48 hrs by resazurin assay relative to control
Assay type: ADME, cell-based
Conditions: read-out: Activity

Row | SMILES | viability at 48 h, 10 µM
5 | O=C(NCCCCCC[P+](c1ccccc1)(c1ccccc1)c1ccccc1)c1ccc(O)c(O)c1 | 97.4%
6 | CS(=O)(=O)[O-].O=C(/C=C/c1cc(O)c(O)c(O)c1)NCCCCCCCCCC[P+](c1ccccc1)(c1ccccc1)c1ccccc1 | 105%

Test system: not listed separately
Experiment: Antioxidant activity assessed as DPPH radical scavenging activity measured after 45 mins by UV-Visible spectrophotometric based assay
Assay type: functional
Conditions: not given

Row | SMILES | IC50
7 | O=C(NCCCCCC[P+](c1ccccc1)(c1ccccc1)c1ccccc1)c1ccc(O)c(O)c1 | 31 µM
8 | CS(=O)(=O)[O-].O=C(/C=C/c1cc(O)c(O)c(O)c1)NCCCCCCCCCC[P+](c1ccccc1)(c1ccccc1)c1ccccc1 | 13.7 µM

Test system: not listed separately
Experiment: Antioxidant activity assessed as ABTS radical scavenging activity measured after 15 mins by UV-Visible spectrophotometric based assay
Assay type: functional
Conditions: not given

Row | SMILES | IC50
9 | O=C(NCCCCCC[P+](c1ccccc1)(c1ccccc1)c1ccccc1)c1ccc(O)c(O)c1 | 20.7 µM
10 | CS(=O)(=O)[O-].O=C(/C=C/c1cc(O)c(O)c(O)c1)NCCCCCCCCCC[P+](c1ccccc1)(c1ccccc1)c1ccccc1 | 7.5 µM

Test system: not listed separately
Experiment: Electrochemical behavior of the compound assessed as redox potential corrected toward saturated Ag/AgCl reference electrode by cyclic voltammetry
Conditions: not given

Row | SMILES | Activity
11 | O=C(NCCCCCC[P+](c1ccccc1)(c1ccccc1)c1ccccc1)c1ccc(O)c(O)c1 | 219 mV
12 | CS(=O)(=O)[O-].O=C(/C=C/c1cc(O)c(O)c(O)c1)NCCCCCCCCCC[P+](c1ccccc1)(c1ccccc1)c1ccccc1 | 57 mV

Test system: not listed separately
Experiment: Electrochemical behavior of the compound assessed as redox potential corrected toward saturated Ag/AgCl reference electrode by differential pulse voltammetry
Conditions: not given

Row | SMILES | Activity
13 | O=C(NCCCCCC[P+](c1ccccc1)(c1ccccc1)c1ccccc1)c1ccc(O)c(O)c1 | 219 mV
14 | CS(=O)(=O)[O-].O=C(/C=C/c1cc(O)c(O)c(O)c1)NCCCCCCCCCC[P+](c1ccccc1)(c1ccccc1)c1ccccc1 | 741 mV

Test system: not listed separately
Experiment: Metal chelating activity assessed as compound-Fe2+ complex formation at 100 uM incubated for 10 mins by ferrozine spectrophotometric assay
Conditions: not given

Row | SMILES | Activity
15 | O=C(NCCCCCC[P+](c1ccccc1)(c1ccccc1)c1ccccc1)c1ccc(O)c(O)c1 | > 80%
16 | CS(=O)(=O)[O-].O=C(/C=C/c1cc(O)c(O)c(O)c1)NCCCCCCCCCC[P+](c1ccccc1)(c1ccccc1)c1ccccc1 | > 80%

Test system: not listed separately
Experiment: Cytotoxicity against human SH-SY5Y cells assessed as cell metabolic activity at 10 uM incubated for 24 hrs by MTT assay relative to control
Assay type: ADME, cell-based
Conditions: read-out: Activity

Row | SMILES | viability at 24 h, 10 µM
17 | O=C(NCCCCCC[P+](c1ccccc1)(c1ccccc1)c1ccccc1)c1ccc(O)c(O)c1 | 102%
18 | CS(=O)(=O)[O-].O=C(/C=C/c1cc(O)c(O)c(O)c1)NCCCCCCCCCC[P+](c1ccccc1)(c1ccccc1)c1ccccc1 | 99%

Test system: not listed separately
Experiment: Cytotoxicity against human HepG2 cells assessed as cell metabolic activity at 50 uM incubated for 48 hrs by resazurin assay relative to control
Assay type: ADME, cell-based
Conditions: read-out: Activity

Row | SMILES | viability at 48 h, 50 µM
19 | O=C(NCCCCCC[P+](c1ccccc1)(c1ccccc1)c1ccccc1)c1ccc(O)c(O)c1 | 90.3%
20 | CS(=O)(=O)[O-].O=C(/C=C/c1cc(O)c(O)c(O)c1)NCCCCCCCCCC[P+](c1ccccc1)(c1ccccc1)c1ccccc1 | 108%

Test system: SH-SY5Y
Experiment: Induction of ROS generation in human SH-SY5Y cells at 50 uM incubated for 24 hrs by DCFH-DA probe based fluorescence assay relative to control
Assay type: functional
Conditions: not given

Row | SMILES | Activity
21 | CS(=O)(=O)[O-].O=C(/C=C/c1cc(O)c(O)c(O)c1)NCCCCCCCCCC[P+](c1ccccc1)(c1ccccc1)c1ccccc1 | Active

Test system: SH-SY5Y
Experiment: Neuroprotective activity against 6-OHDA-induced toxicity in human SH-SY5Y cells assessed as reduction in cell damage at 10 to 50 uM pretreated for 24 hrs followed by 6-OHDA challenge and measured after 24 hrs by MTT assay relative to control
Assay type: functional
Conditions: not given

Row | SMILES | Activity
22 | O=C(NCCCCCC[P+](c1ccccc1)(c1ccccc1)c1ccccc1)c1ccc(O)c(O)c1 | inactive
23 | CS(=O)(=O)[O-].O=C(/C=C/c1cc(O)c(O)c(O)c1)NCCCCCCCCCC[P+](c1ccccc1)(c1ccccc1)c1ccccc1 | inactive

Test system: SH-SY5Y
Experiment: Neuroprotective activity against H2O2-induced oxidative damage in human SH-SY5Y cells assessed as reduction in cell damage at 10 uM pretreated for 24 hrs followed by H2O2 challenge measured after 30 mins by MTT assay relative to control
Assay type: functional
Conditions: not given

Row | SMILES | Activity
24 | O=C(NCCCCCC[P+](c1ccccc1)(c1ccccc1)c1ccccc1)c1ccc(O)c(O)c1 | inactive
25 | CS(=O)(=O)[O-].O=C(/C=C/c1cc(O)c(O)c(O)c1)NCCCCCCCCCC[P+](c1ccccc1)(c1ccccc1)c1ccccc1 | 70.8 - 83.3%

Test system: SH-SY5Y
Experiment: Neuroprotective activity against H2O2-induced oxidative damage in human SH-SY5Y cells assessed as reduction in cell damage at 50 uM pretreated for 24 hrs followed by H2O2 challenge measured after 30 mins by MTT assay relative to control
Assay type: functional
Parameters: scale not given: the % may be the effect or the level left
Conditions: not given

Row | SMILES | Activity
26 | CS(=O)(=O)[O-].O=C(/C=C/c1cc(O)c(O)c(O)c1)NCCCCCCCCCC[P+](c1ccccc1)(c1ccccc1)c1ccccc1 | 70.8 - 83.3%

Test system: SH-SY5Y
Experiment: Neuroprotective activity against TBHP-induced oxidative damage in human SH-SY5Y cells assessed as increase in cell viability at 50 uM pretreated for 24 hrs followed by TBHP stimulation measured after 4 hrs by MTT assay relative to control
Assay type: functional
Conditions: not given

Row | SMILES | Activity
27 | O=C(NCCCCCC[P+](c1ccccc1)(c1ccccc1)c1ccccc1)c1ccc(O)c(O)c1 | inactive
28 | CS(=O)(=O)[O-].O=C(/C=C/c1cc(O)c(O)c(O)c1)NCCCCCCCCCC[P+](c1ccccc1)(c1ccccc1)c1ccccc1 | inactive
